Data reported in patent US9301885B2, “Absorbent article” (UNICHARM CORPORATION, priority 2011, dated 2016).

Assay: Water solubility
Conditions: in 100 g of water at 25° C., 24 hours, visual evaluation
Description: As used herein, the term “solubility” used herein in regard to water solubility includes cases where the sample completely dissolves in deionized water to form a homogeneous mixture, and cases where the sample is completely emulsified. As used herein, “completely” means that none of the sample remains in the deionized water.

Water solubility (Table 2): <0.05 g
Water solubility (Table 3): <0.05 g
Compound: CCCCC(CC)C(=O)OCC(C)(C)COC(=O)C(CC)CCCC (centres unmarked) [H-208BRS, Neopentylglycol di(2-ethylhexanoate)]
